{"source": "patent US20020095001A1", "about": "“Methods and compositions for topical treatment of damaged tissue using reactive oxygen metabolite production or release inhibitors” (priority 1999, published 2002)", "key": {"[1]": {"target": "T1, NADPH oxidase (Homo sapiens, UniProt P04839)", "T1 construct": "host or cells: phagocytes / neutrophils (background description)", "details": "membrane bound oxidase of phagocytes, substrate preference; generally accepted; cited from earlier work"}, "[2]": {"system": "pharyngotosillitis, a herpetic infection of the pharyngeal region", "experiment": "Example 5: pharyngotonsillitis treated with a mouthwash", "type": "in vivo, human", "details": "mouthwash 0.05% by weight, five applications per day for seven days", "description": "A subject suffering from pharyngotosillitis, a herpetic infection of the pharyngeal region is treated with a mouthwash containing the ROM inhibitory compound NADPH oxidase inhibitor […] in a concentration of 0.05% by weight of formulation. The treatment consists of five mouthwash applications per day for a period of seven days. The administration of […] was effective in treating the pharyngotosillitis of the subject."}, "[3]": {"system": "chemical peel treated skin", "details": "solution 0.008% by weight, soaking five times daily after chemical peel", "source_text": "The solution is applied by soaking the treated five times daily to the treated area."}, "[4]": {"system": "varicella-zoster virus (chicken pox) infection", "details": "child; paste 0.02% by weight five times per day and soap 0.1% by weight during bathing", "protocol": "A child presenting the symptoms of chicken pox is treated with the compounds of the present invention. In this example, two products are used to treat the subject. […] The paste is applied five times per day until the vesicles have completely healed."}, "[5]": {"system": "herpes labialis", "details": "cream with 0.08% by weight, topical four to five times a day; compared to control cream group", "quoted_text": "Treatment of the subjects consists of the topical application of the medication four to five times a day at the lesion site."}, "[6]": {"system": "psoriasis of the scalp", "description": "A subject suffering from psoriasis of the scalp is treated with a shampoo containing approximately 0.008% by weight of histamine dihydrochloride. The subject undergoes UVB treatment in accordance with a protocol well known to those of ordinary skill in the art. In addition, the subject washes their hair once per day with the shampoo containing the ROM production and release inhibitory compound histamine."}, "[7]": {"system": "incision of the skin", "details": "formulation 0.0045% by weight with vitamin A 2000 IU, vitamin E 5000 IU and a topical antibiotic, twice a day", "description": "The compositions of the present invention are administered topically to a subject presenting an incision of the skin. A formulation containing histamine dihydrochloride in a concentration of 0.0045% by weight of the formulation, vitamin A at 2000 IU, vitamin E at 5000 IU, and a topical antibiotic is applied to the wound following proper wound cleansing. Subsequent administration of the formulation occurs twice a day and with each change of wound dressing."}, "[8]": {"system": "chemical burn injuries", "details": "water-based gel 0.007% by weight; every 10 minutes first hour, every 30 minutes next three hours, then as needed", "description": "The compositions of the present invention are administered topically to a subject presenting chemical burn injuries. A water-based gel preparation containing of 0.007% by weight of the formulation of histamine dihydrochloride was administered to the subject's burn injuries. The treatment consisted of topical application of the gel to the burn site every 10 minutes for the first hour, then every 30 minutes for the next three hours. Topical applications thereafter are applied as needed by the subject in response to pain."}, "[9]": {"system": "keratoconjunctivitis or a corneal herpes infection", "details": "ophthalmic solution 0.09% by weight with ZOVIRAX every three hours, plus solution without ZOVIRAX hourly", "description": "A subject presenting keratoconjunctivitis or a corneal herpes infection is treated with the compositions of the present invention using an ophthalmic solution of histamine dihydrochloride at 0.09% by weight of formulation. Commercially available ophthalmic solutions are well known in the art. Additionally, the ophthalmic solution contains ZOVIRAX in an effective concentration. Application of the solution to the eye occurs every three hours. A solution containing only the ROM production and release inhibiting compound is given hourly to ease the discomfort of the subject."}, "[10]": {"system": "eczema", "details": "soap approx. 0.1% by weight once daily and lotion approx. 0.0055% by weight up to five times a day", "description": "A subject presenting eczema is treated with a lotion and soap containing the ROM production and release inhibitory compound histamine dihydrochloride. The soap contains histamine in a concentration of approximately 0.1% by weight while the lotion contains histamine in a concentration of approximately 0.0055% by weight. The subject bathes with the soap once daily. The affected area is lathered well with the soap, rinsed, and the procedure is repeated. Following the bath, the lotion is applied up to five times throughout the day to the affected area."}, "[11]": {"system": "periodontal disease", "details": "mouthwash and toothpaste, each 0.008% by weight, three times daily", "description": "A subject presenting periodontal disease is treated with a mouthwash and toothpaste, each containing 0.008% by weight of histamine dihydrochloride. The subject brushes their teeth three times daily with the toothpaste for ten minutes. Following this cleansing, the subject washes their mouth with the mouthwash, rinses with water, and repeats. The treatment continues until the health of the periodontal tissue improves."}, "[12]": {"system": "herpes labialis", "details": "cream 0.08% by weight five times a day together with ZOVIRAX; compared to ZOVIRAX alone", "protocol": "The ability of the ROM production and release inhibition compounds of the present invention to increase the effectiveness of 9-(2-Hydroxyethoxymethyl)guanine, ZOVIRAX, (GlaxoWellcome) is evaluated in two groups of 10 subjects each. No subjects are suffering from active lesions at the initiation of the study. Group I subjects receive ZOVIRAX according to the dosage given by the manufacturer. […] Application of the cream continues during vesicle formation and until the vesicles have completely healed. Subjects in both groups are instructed to topically apply the product five times a day at the lesion site.\nSubjects participating in the study are instructed to monitor the size and duration of the lesions during the herpetic episode."}, "[13]": {"system": "herpes zoster or shingles lesions", "details": "ointment approx. 0.004% by weight four times a day plus subcutaneous histamine 10 μg/kg once per week", "description": "A subject presenting herpes zoster or shingles lesions is treated with the compounds of the present invention in the form of an ointment. […] The ointment is administered topically to shingles lesions four times a day until the lesions completely heal. A subcutaneous injection of histamine at a concentration of 10 μg/kg of the subject is also administered. The injection is given once per week."}, "[14]": {"system": "laser facial resurfacing treated skin", "details": "bandage with sterile solution 0.008% by weight five times daily, plus sunscreen 0.008% by weight", "source_text": "The bandage containing the sterile solution of histamine dihydrochloride is applied five times daily to the treated area. A sunscreen containing 0.008% by weight of histamine dihydrochloride is also applied before the subject is to be exposed to sunlight."}, "[15]": {"system": "photodermatitis (second degree sunburn)", "details": "aloe vera based gel such as SOOTH-A-CAINE containing 0.006% by weight", "source_text": "The ROM production and release inhibitory compound serotonin is used in a gel to treat a subject presenting photodermatitis (second degree sunburn) and attendant blister formation. The subject has blister formation as well as deep reddening of the epidermis on the back."}, "[16]": {"system": "thermal burn injuries", "experiment": "Example 15: thermal burn injuries treated with a water-based gel", "type": "in vivo, human", "details": "water-based gel 0.007% by weight; every 10 minutes first hour, every 30 minutes next three hours, then as needed", "protocol": "The compositions of the present invention are administered topically to a subject presenting thermal burn injuries. A water-based gel preparation containing of 0.007% by weight of the formulation of serotonin was administered to the subject's burn injuries. The treatment consisted of topical application of the gel to the burn site every 10 minutes for the first hour, then every 30 minutes for the next three hours. Topical applications thereafter are applied as needed by the subject in response to pain."}, "[17]": {"system": "herpes labialis", "details": "0.07% by weight lipstick, three times a day for five days", "source_text": "The treatment consists of topical application three times a day for a period of five days."}, "[18]": {"system": "herpes genitalis", "details": "0.07% by weight foam (vaginal) and cream (external), three times a day for five days", "description": "Using an applicator, the foam is injected into the vaginal space to treat herpetic lesions therein. The cream is applied topically to external lesions. The cream and foam are applied three times a day for a period of five days."}}}
{"compound": "NC(=O)C1=CN([C@@H]2O[C@H](COP(=O)(O)OP(=O)(O)OC[C@H]3O[C@@H](n4cnc5c(N)ncnc54)[C@H](O)[C@@H]3O)[C@@H](O)[C@H]2O)C=CC1", "note": "[NADH]", "values": [{"measurement": "Km", "setting": "[1]", "result": 450, "unit": "µM"}]}
{"compound": "NC(=O)C1=CN([C@@H]2O[C@H](COP(=O)(O)OP(=O)(O)OC[C@H]3O[C@@H](n4cnc5c(N)ncnc54)[C@H](OP(=O)(O)O)[C@@H]3O)[C@@H](O)[C@H]2O)C=CC1", "note": "[NADPH]", "values": [{"measurement": "Km", "setting": "[1]", "result": 45, "unit": "µM"}]}
{"compound": "c1ccc2c(c1)[I+]c1ccccc1-2", "note": "[diphenlyeneiodonium]", "values": [{"measurement": "effectiveness in treating the pharyngotosillitis", "setting": "[2]", "result": "effective"}]}
{"compound": "Cl.Cl.NCCc1c[nH]cn1", "note": "[histamine dihydrochloride]", "values": [{"measurement": "rate of healing", "setting": "[3]", "result": "rate of healing is increased"}, {"measurement": "healing of vesicles", "setting": "[4]", "result": "causes the vesicles to heal rapidly"}, {"measurement": "level of discomfort experienced by the subject", "setting": "[4]", "result": "decreases the level of discomfort"}, {"measurement": "healing time of herpetic lesions", "setting": "[5]", "result": "decrease in healing time"}, {"measurement": "rate of reduction in symptoms", "setting": "[6]; shampoo approx. 0.008% by weight once per day with UVB, compared to UVB treatment alone", "result": "reduction in symptoms at a greater rate"}, {"measurement": "irritation of the affected area", "setting": "[6]; shampoo approx. 0.008% by weight once per day, with UVB treatment", "result": "reduces the irritation of the affected area"}, {"measurement": "healing of the incision", "setting": "[7]", "result": "promotes healing of the incision"}, {"measurement": "scar formation", "setting": "[7]", "result": "reduces scar formation"}, {"measurement": "discomfort of the subject", "setting": "[8]", "result": "reduces the discomfort"}, {"measurement": "healing of the burn injuries", "setting": "[8]", "result": "promotes healing"}, {"measurement": "damage caused by the viral outbreak", "setting": "[9]", "result": "reduces"}, {"measurement": "discomfort of the patient", "setting": "[9]", "result": "reduces the discomfort of the patient"}, {"measurement": "time period of viral activity", "setting": "[9]", "result": "reduces the time period of viral activity"}, {"measurement": "general condition of the skin in the affected area", "setting": "[10]", "result": "increase in the general condition of the skin"}, {"measurement": "symptoms of eczema", "setting": "[10]", "result": "decrease in the symptoms"}, {"measurement": "rate of healing", "setting": "[11]", "result": "rate of healing is increased"}, {"measurement": "size of the herpetic lesions forming during the outbreak period", "setting": "[12]", "result": "decrease in the size of the herpetic lesions"}, {"measurement": "time required for the healing of the herpetic lesions", "setting": "[13]", "result": "reduces the time required for the healing"}, {"measurement": "rate of healing", "setting": "[14]", "result": "rate of healing is increased"}]}
{"compound": "NCCc1c[nH]cn1", "note": "[histamine]", "values": [{"measurement": "blistering and amount of skin sloughed off as a result of the irradiation", "setting": "[15]", "result": "decrease in blistering and the amount of skin sloughed off"}, {"measurement": "discomfort in the subject", "setting": "[15]", "result": "reduction of discomfort"}]}
{"compound": "NCCc1c[nH]c2ccc(O)cc12", "note": "[serotonin]", "values": [{"measurement": "discomfort of the subject", "setting": "[16]", "result": "reduces the discomfort"}, {"measurement": "healing of the burn injuries", "setting": "[16]", "result": "promotes healing"}]}
{"compound": "histamine diphosphate", "values": [{"measurement": "healing time of the ruptured herpetic vesicles", "setting": "[17]", "result": "reduced the healing time"}, {"measurement": "healing time of the ruptured herpetic vesicles", "setting": "[18]", "result": "reduced the healing time"}]}
